What was measured:
[1] = target: T1, Sodium-dependent serotonin transporter (Homo sapiens, UniProt P31645); test: biochemical; assay type: cell-based, LLC-PK1
Target sequence in this assay (P31645 whole entry): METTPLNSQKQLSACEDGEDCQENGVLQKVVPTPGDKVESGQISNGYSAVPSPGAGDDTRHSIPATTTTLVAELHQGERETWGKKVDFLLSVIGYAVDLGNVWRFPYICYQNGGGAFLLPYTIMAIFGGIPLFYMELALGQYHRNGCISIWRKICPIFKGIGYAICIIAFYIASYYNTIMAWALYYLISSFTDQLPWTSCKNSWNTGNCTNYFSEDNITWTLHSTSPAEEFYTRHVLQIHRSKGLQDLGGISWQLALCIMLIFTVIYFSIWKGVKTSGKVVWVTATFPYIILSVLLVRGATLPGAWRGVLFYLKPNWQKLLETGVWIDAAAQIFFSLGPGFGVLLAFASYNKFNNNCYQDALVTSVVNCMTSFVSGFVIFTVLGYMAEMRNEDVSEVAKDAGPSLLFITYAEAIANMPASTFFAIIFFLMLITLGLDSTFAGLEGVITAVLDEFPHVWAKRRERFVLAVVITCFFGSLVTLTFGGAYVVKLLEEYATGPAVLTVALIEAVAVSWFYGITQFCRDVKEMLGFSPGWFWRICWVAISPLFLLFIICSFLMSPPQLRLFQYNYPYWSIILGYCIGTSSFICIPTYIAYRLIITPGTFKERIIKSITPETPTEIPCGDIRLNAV
Description: Inhibition of [125I]IDAM uptake at SERT (unknown origin) expressed in LLC-PK1 cell membranes

[2] = target: T1, Sodium-dependent serotonin transporter; test: Binding affinity to SERT (unknown origin)
Target sequence in this assay (P31645 whole entry): as above

[3] = target: T1, Sodium-dependent serotonin transporter; test: Potency index, ratio of Ki of Flip-ADAM to Ki of compound for SERT (unknown origin)
Target sequence in this assay (P31645 whole entry, looked up): as the sequence (P31645 whole entry) above

[4] = target: T1, Sodium-dependent serotonin transporter; test: Potency index, ratio of Ki of IDAM to Ki of compound for SERT (unknown origin)
Target sequence in this assay (P31645 whole entry, looked up): as the sequence (P31645 whole entry) above

[5] = tested on: Nucleic Acid; test: Ratio of drug level in hypothalamus to cerebellum in rat measured 60 mins compound dose; assay type: ADME, tissue-based; conditions: in vivo, 1 h
[6] = target: T1, Sodium-dependent serotonin transporter; test: Inhibition of […] uptake at SERT (unknown origin) expressed in LLC-PK1 cell membranes; assay type: cell-based
Target sequence in this assay (P31645 whole entry): as above

Compound | Ki [1] | Ki [2] | also measured
CN(C)Cc1cc(I)ccc1Sc1ccccc1N | 1 nM |  | 
O=C(OCCF)[C@H]1[C@@H](c2ccc(/C=C\I)cc2)C[C@H]2CC[C@H]1N2 |  | 0.08 nM | 
CN(C)Cc1ccccc1Sc1ccc([123I])cc1N |  | 0.013 nM | 
CN(C)Cc1cc(I)ccc1Sc1ccccc1CO | 0.03 nM |  | Ratio Ki [3]: 33; Ratio Ki [4]: 3
CN(C)Cc1ccccc1Sc1ccc([123I])cc1CO |  | 0.097 nM | Ratio [5]: 2.76
CN(C)Cc1ccccc1Sc1ccc(I)cc1CO |  |  | Ki [6]: 0.1 nM
